In experiment [1] the test system is Escherichia coli. Put plainly: Antibacterial activity against Escherichia coli at 100 ug after 24 hr by cup-plate method. The class given is functional, organism-based.
Experiment [2] deals with Staphylococcus aureus. In words: Antibacterial activity against Staphylococcus aureus at 100 ug after 24 hr by cup-plate method. The class given is functional, organism-based.
Experiment [3] relates to Plasmodium yoelii. Put plainly: Antimalarial activity against Plasmodium yoelii N-67 infected Swiss mouse assessed as parasitemia at 200 mg/kg, ip qd administered 4 days measured on day 7 (reference value: 19.5 +/- 0.76 %). As to conditions: route intraperitoneal. In kind it is functional.
Experiment [4] deals with Plasmodium yoelii. In words: Antimalarial activity against Plasmodium yoelii N-67 infected Swiss mouse assessed as mean survival time at 200 mg/kg, ip qd administered 4 days measured 24 hr post last treatment (reference value: 8.2 +/- 0.86 days). The class given is functional. As to conditions: route intraperitoneal.
Experiment [5] deals with Plasmodium yoelii. Put plainly: Antimalarial activity against Plasmodium yoelii N-67 infected Swiss mouse assessed as parasitemia at 200 mg/kg, ip qd administered 4 days measured 24 hr post last treatment (reference value: 12.36 +/- 1.14 %). In kind it is functional. The following applies: route intraperitoneal.

The source made the active and inactive calls. No cut-off for these calls is given here.

Turning to `Cc1nc2ccccc2c(=O)n1CC(=O)O`, the result in experiment [1] and in experiment [2] was inactive. Also, the Activity in experiment [3] came to 17.2%; in experiment [5], 10.5%. Also, the MST in experiment [4] was 6.6 days.

As to `Cc1nc2ccccc2c(=O)n1[C@@H](CCC(=O)O)C(=O)O`, the outcome in experiment [1] and in experiment [2] was inactive. Also, the results for the Activity in experiment [3] and in experiment [5] were 18.45% and 9.6%, respectively. Besides, in experiment [4], the MST amounted to 7.8 days.

`Cc1nc2ccccc2c(=O)n1[C@@H](CCCCN)C(=O)O`: the result in experiment [1] and in experiment [2] was inactive. Further, the Activity in experiment [3] amounted to 17.5%; in experiment [5] it was 9.78%. The MST in experiment [4] was 6.8 days.

Regarding `Cc1nc2ccccc2c(=O)n1[C@@H](CS)C(=O)O`, the result in experiment [1] and in experiment [2] was inactive. Besides, the Activity was found to be 25% in experiment [3] and 11.9% in experiment [5]. Moreover, the MST in experiment [4] was 7.4 days.

Turning to `Cc1nc2ccccc2c(=O)n1-c1ccc(O)cc1`, the result in experiment [1] and in experiment [2] was inactive. Also, the Activity in experiment [3] worked out at 16.8%; in experiment [5] it was 10.52%. Further, in experiment [4], the MST stood at 6.8 days.

Consider `Cc1nc2ccccc2c(=O)n1-c1ccc([N+](=O)[O-])cc1`, for which the outcome in experiment [1] and in experiment [2] was inactive. In addition, the Activity amounted to 25.5% in experiment [3] and 10.43% in experiment [5]. Also, in experiment [4], the MST stood at 7 days.

The record behind these values is ChEMBL document CHEMBL3045079, “Synthesis, antimalarial and antibacterial activities of 3-amino acid- and aryl amine-substituted 2-methyl-3H-quinalzolin-4-ones” (2010).
